Assays:
Type in all cases: biochemical
PAK4 = PAK4 (Homo sapiens, UniProt O96013); assay: In vitro PAK inhibition assay (Z'-LYTE, SelectScreen), PAK4
Method: (§1) Compounds are screened in 1% DMSO (final) in the well. For 10 point titrations, 3-fold serial dilutions are conducted. All Peptide/Kinase Mixtures are diluted to a 2× working concentration in the appropriate Kinase Buffer
The 2×PAK-4/Ser/Thr 20 mixture is prepared in 50 mM HEPES pH 7.5, 0.01% BRIJ-35, 10 mM MgCl2, 1 mM EGTA. The final 10 μL Kinase Reaction consists of 0.1-0.75 ng PAK-4 and 2 μM Ser/Thr 20 in 50 mM HEPES pH 7.5, 0.01% BRIJ-35, 10 mM MgCl2, 1 mM EGTA. After the 1 hour Kinase Reaction incubation, 5 μL of a 1:256 dilution of Development Reagent A is added.
(§2) 1. Add the following solutions to a well in a 384-well plate: • 2.5 μL of 4× Test Compound OR (100 nL 100× Test Compound plus 2.4 μL kinase buffer) • 5 μL of 2× Peptide/Kinase (PAK) Mixture • 2.5 μL of 4×ATP Solution
(§3) 3. Incubate the PAK Kinase Reaction at room temperature for 60-minutes
(§4) 4. Add 5 μL of Development Reagent Solution to each well
(§5) 6. Incubate the Development Reaction for 60-minutes
(§6) 7. Determine the fluorescence using a fluorescence plate reader
SelectScreen® Kinase Profiling Service uses XLfit from IDBS. The dose response curve is curve fit to model number 205 (sigmoidal dose-response model).
The table below provides specifications and data around each kinase. The representative IC50 value with a known inhibitor for each kinase was determined at the ATP bin nearest to the ATP Km app.

PAK1 = PAK1 (Homo sapiens, UniProt Q13153); assay: In vitro PAK inhibition assay (Z'-LYTE, SelectScreen), PAK1; conditions: read-out: PAK1 IC50
Method: as §1
The 2×PAK1/Ser/Thr 19 mixture is prepared in 50 mM HEPES pH 7.5, 0.01% BRIJ-35, 10 mM MgCl2, 1 mM EGTA.
as §2, §3, §4, §5, §6
(§7) SelectScreen® Kinase Profiling Service uses XLfit from IDBS.
(§8) The representative IC50 value with a known inhibitor for each kinase was determined at the ATP bin nearest to the ATP Km app.

PAK2 (PAK65) = PAK2 (PAK65) (Homo sapiens, UniProt Q13177); assay: In vitro PAK inhibition assay (Z'-LYTE, SelectScreen), PAK2; conditions: read-out: PAK2 IC50
Method: as §1
The 2×PAK2 (PAK65)/Ser/Thr 20 mixture is prepared in 50 mM HEPES pH 7.5, 0.01% BRIJ-35, 10 mM MgCl2, 1 mM EGTA. The final 10 μL Kinase Reaction consists of 0.29-6 ng PAK2 (PAK65) and 2 μM Ser/Thr 20 in 50 mM HEPES pH 7.5, 0.01% BRIJ-35, 10 mM MgCl2, 1 mM EGTA.
as §2, §3, §4, §5, §6, §7, §8

PAK3 = PAK3 (Homo sapiens, UniProt O75914); assay: In vitro PAK inhibition assay (Z'-LYTE, SelectScreen), PAK3; conditions: read-out: PAK3 IC50
Method: as §1
The 2×PAK3/Ser/Thr 20 mixture is prepared in 50 mM HEPES pH 7.5, 0.01% BRIJ-35, 10 mM MgCl2, 1 mM EGTA.
as §2, §3, §4, §5, §6, §7, §8

Sequence of PAK4 (O96013 whole entry): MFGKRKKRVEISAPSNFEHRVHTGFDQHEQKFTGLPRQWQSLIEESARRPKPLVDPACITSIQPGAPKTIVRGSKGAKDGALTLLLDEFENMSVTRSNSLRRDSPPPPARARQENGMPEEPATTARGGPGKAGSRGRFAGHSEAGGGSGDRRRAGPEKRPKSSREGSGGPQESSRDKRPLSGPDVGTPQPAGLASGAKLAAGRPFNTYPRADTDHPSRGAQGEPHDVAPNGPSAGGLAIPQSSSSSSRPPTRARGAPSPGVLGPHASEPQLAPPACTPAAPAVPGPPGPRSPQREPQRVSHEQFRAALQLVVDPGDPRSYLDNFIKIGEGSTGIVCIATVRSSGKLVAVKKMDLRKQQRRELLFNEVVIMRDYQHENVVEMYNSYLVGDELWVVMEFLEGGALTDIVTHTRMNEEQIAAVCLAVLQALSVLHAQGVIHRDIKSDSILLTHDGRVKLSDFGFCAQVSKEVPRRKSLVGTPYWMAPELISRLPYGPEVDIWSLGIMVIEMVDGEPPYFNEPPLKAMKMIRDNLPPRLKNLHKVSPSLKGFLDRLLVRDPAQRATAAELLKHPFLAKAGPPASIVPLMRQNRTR
Sequence of PAK3 (O75914 1-544 isoform O75914-2): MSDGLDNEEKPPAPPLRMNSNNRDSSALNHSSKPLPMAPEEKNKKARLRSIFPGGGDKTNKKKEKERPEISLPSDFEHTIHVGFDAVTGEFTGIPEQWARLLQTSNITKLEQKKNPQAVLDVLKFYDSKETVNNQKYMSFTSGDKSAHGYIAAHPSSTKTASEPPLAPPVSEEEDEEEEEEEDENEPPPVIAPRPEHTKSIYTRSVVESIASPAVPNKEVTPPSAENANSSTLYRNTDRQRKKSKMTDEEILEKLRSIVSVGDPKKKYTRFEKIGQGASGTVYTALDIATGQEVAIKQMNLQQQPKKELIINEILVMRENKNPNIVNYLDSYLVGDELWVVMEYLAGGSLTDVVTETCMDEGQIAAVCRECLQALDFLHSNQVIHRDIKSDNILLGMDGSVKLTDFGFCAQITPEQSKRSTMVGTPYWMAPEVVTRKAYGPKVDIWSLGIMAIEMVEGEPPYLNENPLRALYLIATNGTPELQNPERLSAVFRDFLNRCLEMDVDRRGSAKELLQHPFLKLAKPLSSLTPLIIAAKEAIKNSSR
Sequence of PAK2 (PAK65) (Q13177 whole entry): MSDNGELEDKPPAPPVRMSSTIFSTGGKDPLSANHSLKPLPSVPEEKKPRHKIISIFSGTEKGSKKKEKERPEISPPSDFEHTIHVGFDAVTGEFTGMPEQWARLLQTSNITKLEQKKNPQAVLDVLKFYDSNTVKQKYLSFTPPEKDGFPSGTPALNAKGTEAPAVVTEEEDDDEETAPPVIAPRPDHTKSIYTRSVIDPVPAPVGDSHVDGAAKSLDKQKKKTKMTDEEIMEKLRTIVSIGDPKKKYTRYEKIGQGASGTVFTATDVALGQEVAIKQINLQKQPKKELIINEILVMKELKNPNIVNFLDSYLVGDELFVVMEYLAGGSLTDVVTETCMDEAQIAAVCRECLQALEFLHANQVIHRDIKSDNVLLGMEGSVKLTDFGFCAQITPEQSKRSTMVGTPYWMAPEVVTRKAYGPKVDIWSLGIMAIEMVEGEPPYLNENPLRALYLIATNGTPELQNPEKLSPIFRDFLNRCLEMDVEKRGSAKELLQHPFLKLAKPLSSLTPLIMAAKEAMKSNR
Sequence of PAK1 (Q13153 whole entry): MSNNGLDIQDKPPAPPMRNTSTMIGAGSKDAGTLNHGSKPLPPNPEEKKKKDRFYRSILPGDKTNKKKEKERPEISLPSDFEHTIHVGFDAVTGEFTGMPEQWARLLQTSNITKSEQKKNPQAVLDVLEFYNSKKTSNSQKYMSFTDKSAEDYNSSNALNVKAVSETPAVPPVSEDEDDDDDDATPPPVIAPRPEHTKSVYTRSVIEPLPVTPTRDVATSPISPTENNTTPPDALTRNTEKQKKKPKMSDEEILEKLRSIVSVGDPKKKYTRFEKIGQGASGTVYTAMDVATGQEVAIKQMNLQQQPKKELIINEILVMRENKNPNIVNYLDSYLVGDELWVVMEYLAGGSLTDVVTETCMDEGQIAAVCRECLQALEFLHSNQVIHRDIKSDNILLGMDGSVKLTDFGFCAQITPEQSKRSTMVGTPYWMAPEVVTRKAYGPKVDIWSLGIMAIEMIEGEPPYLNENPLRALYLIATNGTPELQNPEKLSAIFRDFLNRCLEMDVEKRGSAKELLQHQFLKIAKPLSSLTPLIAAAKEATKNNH

Structure (SMILES) | IC50 (PAK4) [µM] | IC50 (PAK1) [µM] | IC50 (PAK2 (PAK65)) [µM] | IC50 (PAK3) [µM]
CCn1c(=O)c(-c2ccc(-c3noc(C)n3)cc2Cl)cc2cnc(NCCC3CCNCC3)nc21 [Example 137] | > 5 | 0.05 to 0.5 | < 0.05 | 0.05 to 0.5
CCn1c(=O)c(-c2ccc(-c3ccncc3C)cc2Cl)cc2cnc(NC3CCOCC3)nc21 [Example 46] | > 5 | 0.5 to 5 | 0.5 to 5 | 0.5 to 5
Cc1cnc(-c2ccc(-c3cc4cnc(NC5CCOCC5)nc4n(Cc4ccccc4C(F)(F)F)c3=O)c(Cl)c2)s1 [Example 26] | > 5 | 0.05 to 0.5 | 0.05 to 0.5 | 0.05 to 0.5
Cc1nccnc1-c1ccc(-c2cc3cnc(N[C@@H]4CCOC4)nc3n(Cc3cccnc3)c2=O)c(Cl)c1 [Example 122, (R)-6-(2-chloro-4-(3-methylpyrazin-2-yl)phenyl)-8-(pyridin-3-ylmethyl)-2-((tetrahydrofuran-3-yl)amino)pyrido[2,3-d]pyrimidin-7(8H)-one] | > 5 | 0.05 to 0.5 | < 0.05 | 0.05 to 0.5
CCn1c(=O)c(-c2ccc(-c3cnccc3C)cc2Cl)cc2cnc(NC3CCOCC3)nc21 [Example 47] | > 5 | 0.05 to 0.5 | 0.5 to 5 | 0.05 to 0.5
CCn1c(=O)c(-c2ccc(-c3nccnc3C)cc2Cl)cc2cnc(N[C@H]3CC[C@H](N)CC3)nc21 [Example 90, 2-(((trans-1,4)-4-aminocyclohexyl)amino)-6-(2-chloro-4-(3-methylpyrazin-2-yl)phenyl)-8-ethylpyrido[2,3-d]pyrimidin-7(8H)-one] | > 5 | 0.05 to 0.5 | < 0.05 | 0.05 to 0.5
CCn1c(=O)c(-c2ccc(-c3ccncc3)cc2Cl)cc2cnc(NC3CCOCC3)nc21 [Example 43] | > 5 | 0.5 to 5 | 0.5 to 5 | > 5
CCn1c(=O)c(-c2ccc(-c3cncc(C)n3)cc2Cl)cc2cnc(NCCOCCN(C)C)nc21 [Example 127, 6-(2-chloro-4-(6-methylpyrazin-2-yl)phenyl)-2-((2-(2-(dimethylamino)ethoxy)ethyl)amino)-8-ethylpyrido[2,3-d]pyrimidin-7(8H)-one] | > 5 | 0.05 to 0.5 | 0.05 to 0.5 | 0.05 to 0.5
Cc1cncc(-c2ccc(-c3cc4cnc(NC5CCOCC5)nc4n(Cc4ccccc4F)c3=O)c(Cl)c2)n1 [Example 36] | > 5 | 0.05 to 0.5 | 0.05 to 0.5 | 0.05 to 0.5
CCn1c(=O)c(-c2ccc(-c3nccnc3C)cc2Cl)cc2cnc(NC3CCSCC3)nc21 [Example 18] | > 5 | 0.05 to 0.5 | 0.05 to 0.5 | 0.05 to 0.5
Cc1nccnc1-c1ccc(-c2cc3cnc(NC4CCOCC4)nc3n(Cc3ccccc3)c2=O)c(Cl)c1 [Example 16] | > 5 | < 0.05 | < 0.05 | 0.05 to 0.5
CCn1c(=O)c(-c2ccc(-c3nccnc3C)cc2Cl)cc2cnc(NC3CC[S+]([O-])CC3)nc21 (stereo not shown) [Example 74] | > 5 | 0.05 to 0.5 | 0.05 to 0.5 | 0.5 to 5
CCNc1ncc2cc(-c3ccc(-c4cncc(C)n4)cc3Cl)c(=O)n([C@H]3CC[C@H](N)CC3)c2n1 [Example 117] | 0.5 to 5 | < 0.05 | < 0.05 | < 0.05
Cc1cncc(-c2ccc(-c3cc4cnc(N[C@@H]5CCOC5)nc4n(C4CCNCC4)c3=O)c(Cl)c2)n1 [Example 105] | > 5 | 0.05 to 0.5 | 0.05 to 0.5 | 0.05 to 0.5
Cc1cncc(-c2ccc(-c3cc4cnc(N[C@@H]5CCOC5)nc4n(CCN)c3=O)c(Cl)c2)n1 [Example 99] | > 5 | < 0.05 | < 0.05 | 0.05 to 0.5
CCn1c(=O)c(-c2ccc(-c3nccnc3C)cc2Cl)cc2cnc(NC3CCOCC3)nc21 [Example 2] | > 5 | 0.05 to 0.5 | 0.05 to 0.5 | 0.05 to 0.5
CCn1c(=O)c(-c2ccc(-c3nccnc3C)cc2Cl)cc2cnc(NC3C[C@@H](C)O[C@@H](C)C3)nc21 (stereo partly shown) [Example 38] | > 5 | < 0.05 | < 0.05 | 0.05 to 0.5

Structure (SMILES) | IC50 (PAK4) [µM] | IC50 (PAK1) [µM] | IC50 (PAK2 (PAK65)) [µM] | IC50 (PAK3) [µM]
CCn1c(=O)c(-c2cc(C)c(-c3noc(C)n3)cc2Cl)cc2cnc(N[C@@H]3CCOC3)nc21 [Example 73] | > 5 | 0.5 to 5 | 0.5 to 5 | 0.5 to 5
Cc1cncc(-c2ccc(-c3cc4cnc(NC(C)C)nc4n([C@H]4CC[C@H](N)CC4)c3=O)c(Cl)c2)n1 [Example 116] | 0.5 to 5 | < 0.05 | < 0.05 | < 0.05
Cc1cncc(-c2ccc(-c3cc4cnc(N[C@H]5CCOC5)nc4n(CCN(C)C)c3=O)c(Cl)c2)n1 [Example 103] | > 5 | 0.05 to 0.5 | 0.05 to 0.5 | 0.5 to 5
Cc1nccnc1-c1ccc(-c2cc3cnc(NC4CC4)nc3n([C@H]3CC[C@H](N)CC3)c2=O)c(Cl)c1 [Example 119] | > 5 | < 0.05 | < 0.05 | < 0.05
CCn1c(=O)c(-c2ccc(-c3cncc(C)n3)cc2Cl)cc2cnc(NC3CNC(=O)C3)nc21 (stereo not shown) [Example 66] | > 5 | 0.05 to 0.5 | < 0.05 | 0.05 to 0.5
CCn1c(=O)c(-c2ccc(-c3nccnc3C)cc2Cl)cc2cnc(NC3CCN(C)C3)nc21 (stereo not shown) [Example 78, 6-(2-chloro-4-(3-methylpyrazin-2-yl)phenyl)-8-ethyl-2-((1-methylpyrrolidin-3-yl)amino)pyrido[2,3-d]pyrimidin-7(8H)-one] | > 5 | 0.05 to 0.5 | 0.05 to 0.5 | 0.5 to 5
Cc1cncc(-c2ccc(-c3cc4cnc(N[C@@H]5CCOC5)nc4n([C@H]4CC[C@H](N)CC4)c3=O)c(Cl)c2)n1 [Example 109] | > 5 | < 0.05 | < 0.05 | 0.05 to 0.5
CCn1c(=O)c(-c2ccc(-c3cncc(C)n3)cc2Cl)cc2cnc(N[C@H]3CC[C@@H](N)CC3)nc21 [Example 86] | > 5 | 0.05 to 0.5 | 0.05 to 0.5 | 0.5 to 5
Cc1cncc(-c2ccc(-c3cc4cnc(NC5CCOCC5)nc4n(Cc4ccccc4)c3=O)c(Cl)c2)n1 [Example 34] | > 5 | 0.05 to 0.5 | < 0.05 | 0.05 to 0.5
COCCCn1c(=O)c(-c2ccc(-c3cncc(C)n3)cc2Cl)cc2cnc(N[C@H]3CCOC3)nc21 [Example 65] | > 5 | < 0.05 | < 0.05 | 0.05 to 0.5
CCn1c(=O)c(-c2ccc(-c3nccnc3C)cc2Cl)cc2cnc(NC3CCCCC3)nc21 [Example 3] | > 5 | > 5 | 0.5 to 5 | > 5
CCn1c(=O)c(-c2ccc(-c3cccnc3O)cc2Cl)cc2cnc(NC3CCOCC3)nc21 [Example 48] | > 5 | 0.05 to 0.5 | 0.05 to 0.5 | 0.05 to 0.5
CCn1c(=O)c(-c2ccc(-c3cncc(C)n3)cc2Cl)cc2cnc(NCCCOCCN)nc21 [Example 133] | > 5 | 0.05 to 0.5 | 0.05 to 0.5 | 0.5 to 5
Cc1cncc(-c2ccc(-c3cc4cnc(N[C@H]5CCOC5)nc4n(CCN)c3=O)c(Cl)c2)n1 [Example 100] | > 5 | 0.05 to 0.5 | < 0.05 | 0.05 to 0.5
CCn1c(=O)c(-c2ccc(-c3cncc(C)n3)cc2Cl)cc2cnc(NCCCOCCCN)nc21 [Example 129] | > 5 | < 0.05 | < 0.05 | 0.05 to 0.5
Cc1cncc(-c2ccc(-c3cc4cnc(N[C@H]5CCOC5)nc4n(C4CCNCC4)c3=O)c(Cl)c2)n1 [Example 106] | > 5 | 0.05 to 0.5 | 0.05 to 0.5 | 0.05 to 0.5
CCn1c(=O)c(-c2ccc(-c3cncc(C)n3)cc2Cl)cc2cnc(NC3CCC(CCN(C)C)CC3)nc21 (stereo not shown) [Example 70] | > 5 | < 0.05 | < 0.05 | 0.05 to 0.5

Source: patent US20130116263A1, “PAK INHIBITORS FOR THE TREATMENT OF CELL PROLIFERATIVE DISORDERS” (AFRAXIS, INC., priority 2011, published 2013)
